Experimental data published in patent EP0894089B9, “NOVEL HETEROCYCLIC COMPOUNDS HAVING ANTIDIABETIC, HYPOLIPIDAEMIC, ANTIHYPERTENSIVE PROPERTIES, PROCESS FOR THEIR PREPARATION AND PHARMACEUTICAL COMPOSITIONS CONTAINING THEM” (Dr. Reddy's Laboratories Ltd., priority 1997, dated 1997).
Structures can show the parent of a compound that is named as a salt.

Test system: C57BL/KsJ-db/db mice
Test: blood sugar and triglycerides lowering activity in db/db mice (in vivo)
Settings: male C57BL/KsJ-db/db mice; for Triglyceride Lowering (%) / Reduction in Blood Glucose Level (%): 30 mg / kg oral gavage daily for 6 days, one hour after administration; for Triglyceride Lowering (%): plasma triglyceride on 6th day; for Reduction in Blood Glucose Level (%): random plasma glucose on 6th day
Excerpt: Mutation in colonies of laboratory animals and different sensitivities to dietary regimens have made the development of animal models with non-insulin dependent diabetes associated with obesity and insulin resistance possible. Genetic models such as db/db and ob/ob (See Diabetes, (1982) 31(1) : 1- 6) in mice and fa/fa and zucker rats have been developed by the various laboratories for understanding the pathophysiology of disease and testing the efficacy of new antidiabetic compounds (Diabetes, (1983) 32: 830-838; Annu. Rep. Sankyo Res. Lab. (1994). 46 : 1-57). The homozygous animals, C57 BL/KsJ-db/db mice developed by Jackson Laboratory, US, are obese, hyperglycemic, hyperinsulinemic and insulin resistant (J. Clin. Invest., (1990) 85 : 962-967), whereas heterozygous are lean and normoglycemic. In db/db model, a mouse progressively develops insulinopenia with age, a feature commonly observed in late stages of human type II diabetes when blood sugar levels are insufficiently controlled. The state of pancreas and its course vary according to the models. Since this model resembles that of type II diabetes mellitus, the compounds of the present invention were tested for blood sugar and triglycerides lowering activities.
Male C57BL/KsJ-db/db mice of 8 to 14 weeks age, having body weight range of 35 to 60 grams, procured from the Jackson Laboraotory, USA, were used in the experiment. The mice were provided with standard feed (National Institute of Nutrition, Hyderabad, India) and acidified water, ad libitum. The animals having more than 300 mg / dl blood sugar were used for testing. The number of animals in each group was 4.
The random blood sugar and triglyceride levels were measured by collecting blood (100 µl) through orbital sinus, using heparinised capillary in tubes containing EDTA which was centrifuged to obtain plasma. The plasma glucose and triglyceride levels were measured spectrometrically, by glucose oxidase and glycerol-3-PO4 oxidase/peroxidase enzyme (Dr. Reddy's Lab. Diagnostic Division Kits, Hyderabad, India) methods respectively. On 6th day the blood samples were collected one hour after administration of test compounds / vehicle for assessing the biological activity.
Test compounds were suspended on 0.25 % carboxymethyl cellulose and administered to test group at a dose of 30 mg / kg through oral gavage daily for 6 days. The control group received vehicle (dose 10 ml / kg).
The blood sugar and triglycerides lowering activities of the test compound was calculated according to the formula: Blood sugar / triglycerides lowering activity (%) = 1 -(DT/DC)/(TC/ZC)X 100 [formula] • ZC = Zero day control group value • DC = Zero day treated group value • TC = Control group value on test day • DT = Treated group value on the test day

Row | Compound | Triglyceride Lowering (%) | Reduction in Blood Glucose Level (%) | reduction in random blood sugar level (100 mg / kg, daily dose, on 6th day) [%]
1 | Cc1oc2c(C)c(C)c(OCc3ccccc3)c(C)c2c1CN1CCC[C@H]1COc1ccc(C=C2SC(=O)NC2=O)cc1 [Example 20, 5-[4-[N-(5-Benzyloxy-2,4,6,7-tetramethylbenzofuran-3-ylmethyl)-(2S)-pyrrolidine-2-methoxy]phenylmethylene]thiazolidine-2,4-dione] | 43 | 16 | –
2 | Cc1c(C)c2c(c(C)c1O)CCC(C)(COc1ccc(CC3SC(=O)NC3=O)cc1)O2 (stereo not shown) [Troglitazone, reference compound] | – | – | 28
3 | Cc1c(C)c2c(c(C)c1OCc1ccccc1)C(CN1CCC[C@H]1COc1ccc(C=C3SC(=O)NC3=O)cc1)C(C)(C)O2 (stereo partly drawn) [Example 13, 5-[4-[N-[3(RS)-5-Benzyloxy-2,3-dihydro-2,2,4,6,7-pentamethylbenzofuran-3-ylmethyl]-(2S)-pyrrolidine-2-methoxy]phenylmethylene]thiazolidine-2,4-dione maleate] | 42 | 45 | –
4 | Cc1c(C)c2c(c(C)c1OCc1ccccc1)CCC(C)(CN1CCC[C@H]1COc1ccc(CC3SC(=O)NC3=O)cc1)O2 (stereo partly drawn) [Example 7, 5-[4-[N-(2RS)-6-Benzyloxy-2,5,7,8,-tetramethylchroman-2-ylmethyl]-(2S)-pyrrolidine-2-methoxy]phenyl methyl]thiazolidine-2,4-dione, sodium salt] | 70 | 36 | –
